Assay results taken from patent publication US6552066B1, “Protein tyrosine kinase inhibitors for treating osteoarthritis” (priority 1995, dated 2003).
Where two headings read alike, the source gives them in different places.

Experiments:
stromelysin mRNA = experiment: Northern blot of IL-1-induced stromelysin mRNA in primary bovine chondrocytes; assay type: cell-based; conditions: 2 h preincubation, IL-1α 1 ng/ml 24 hours
Protocol: The isolation of cartilage and the enzymatic degradation of cartilage was carried out as described in Example 1.
Chondrocytes were recovered by addition of an equal volume of DMEM/F12 supplemented with 10% fetal bovine serum (FBS) to neutralize enzymes, filtration through a 70μm nylon Cell Strainer (Falcon), and centrifugation at 1000×g for ten minutes at room temperature. Chondrocytes were seeded in T-150 plates at 5×10^4 cells/cm^2 using 1:1 DMEM/F12, 10% FBS, 1% antibiotic solution (penicillin, streptomycin, fungizone: GIBCO/BRL), and incubated at 37° C., 5% CO2. Cells were refed with DMEM/F12 plus 10% FBS on days 4, 7, and 10. On day 11, test cultures (except for the+interleukin 1α control) were rinsed in phosphate buffered saline (PBS), and preincubated for 2 hours with 5 ml of serum-free DMEM/F12 containing one of the following protein kinase inhibitors:
1) Protein kinase A (PKA) inhibitors; 0.5 μM H88 (Seikagaku Corp.), 0.5 μMH89 (Seikagaku Corp.); 2) Protein kinase G (PKG) and PKA inhibitor; 5.0 μM H89; 3) Protein kinase C. (PKC) inhibitors; 0.5 μM Calphostin C (Calbiochem), 1.0 μM chelerythrine (Calbiochem); 4) CA^2+/Calmodulin Kinase II inhibitor; 5.0 μM KN93 (Seikagaku Corp.); 5) Protein tyrosine kinase (PTK) inhibitors; 50 μM Genistein (Calbiochem), 10 μM Herbimycin A (Calbiochem), 50 μM Tyrphostin A25 (AG 82) (Calbiochem), 50 μm Tyrphostin AG 126 (Calbiochem), 50 μM Tyrphostin B56 (AG 556) (Calbiochem), 20 μM DAPH (Calbiochem).
Recombinant human interleukin 1 α (IL-1α) (R & D Systems) at 1 ng/ml was then added to all cultures (except the IL-1α control) for 24 hours in serum-free DMEM/F12 containing 1% antibiotic solution.
RNA on the Northern blot was fixed to the membrane by baking at 80° C. for 30 minutes.
Prehybridization (1.5 hours) and hybridization (overnight) of the Northern blot with the radioactive probes were performed in 50% formamide, 1×GIBCO/BRL hybridization solution, 0.1% SDS, and 10mM monobasic sodium phosphate, at 42° C. The blot was successively washed two times in 1×SSC/0.1% SDS (15 minutes/wash at room temperature), and two times in 0.2×SSC/0.1% SDS (30 minutes/wash at 55° C.). The blot was allowed to air dry, and was exposed to X-ray film, with intensifying screen, overnight at −70° C.

[1] = tested on: IL-1 induced release of 35S-labelled proteoglycans from chondrocytes; experiment: Chondrocyte cell culture matrix breakdown assay (IL-1 induced 35S release); assay type: cell-based, calf (bovine); conditions: for inhibition at 50 µM / inhibition at 10 µM: Bos taurus, Chondrocyte
Protocol: A cell culture assay was used to measure the ability of the test compounds to slow the degradation of the extracellular matrix by a metalloproteinase. This assay measured the amount ^35S released from chondrocytes grown in a media with ^35S labeled sodium sulfate. The cell culture assay was carried out as follows:
Two or three 1 to 3 week old calf joints were obtained from an abattoir. The proximal end of the shank was about 4-5′ long to facilitate immobilization in the holder. The joint was kept cool and transported on ice. The exterior of the intact joints was washed well with a suitable anti-microbial soap, rinsed clean with warm water, rinsed in betadine and then finally rinsed with 70% ethanol. Up to this point all steps were done in a manner to ensure that the joint was kept as clean as possible. All subsequent steps were performed in a sterile field (i.e., in a Edgeguard laminar flow tissue culture hood). The joint was immobilized and the synovial fluid was aspirated with a needle and syringe. The joint was then cut open to expose the articular cartilage using a #21 scalpel. Using locking hemostats, forceps and a #15 scalpel, the cartilage was excised in full thickness pieces. Care was taken not to cut too deep into the subchondral bone to prevent bleeding. The cartilage pieces were placed into a 50 mL centrifuge tube containing 25 mL of Delbecco's phosphate buffered saline (D-PBS) supplemented with 1% antibiotic solution (penicillin, streptomycin and fungizone; GIBCO/BRL). The slices from each joint were then placed into separate 50 mL centrifuge tubes. The D-PBS was decanted and replaced with 25 mL of fresh D-PBS supplemented with antibiotics and subsequently agitated gently.
The cartilage pieces were transferred to a fresh 50 mL centrifuge tube and rinsed once more with 25 mL of D-PBS minus antibiotics. An enzymatic digestion solution containing 1 mg/mL of hyaluronidase in serum-free 1:1 DMEM/Ham's F-12 (DMEM/F12) was prepared. This solution was filter sterilized with 0.22 mm Milex-GV filter and kept on ice until ready to use. The cartilage pieces were digested with approximately 5 mL of hyaluronidase solution per joint for 2×15 minutes at 37° C. in the 50 mL centrifuge tube with gentle agitation at the 15 minute mark. This procedure removed residual hyaluronic acid from the surface of the chips. The enzymatic digestion solution was then aspirated and the cartilage pieces were rinsed with 25 mL of D-PBS.
A second enzymatic digestion solution containing 2.5 mg trypsin and 2 mg collagenase P per mL serum-free DMEM/F12 was prepared. This solution was also filter sterilized with a 0.22 mm Millex-GV filter and kept on ice until ready to use. The cartilage pieces were digested with approximately 5 mL of trypsin: collagenase solution per joint for 2×15 minutes at 37° C. in the 50 mL centrifuge tube with gentle agitation at the 15 minute mark. This procedure removed the synovial fibroblasts and any adherent connective tissue from the surface of the chips. The enzymatic digestion solution was then carefully removed and saved and the cartilage pieces were rinsed with 25 mL of D-PBS.
A third enzymatic solution containing 2 mgs of collagenase P (BMB) per mL serum-free DMEM/F12 was prepared. This solution was filter sterilized with a 0.22 mm Millex-GV filter and kept on ice until ready to use. The pre-digested cartilage pieces were finally digested with approximately 20 mL of enzymatic digestion solution per joint for 5-6 hours at 37° C. in a Bellco stirring digestion flask, at which point the cartilage was fully digested away.
The enzymes in the synovial fibroblast and chondrocyte digest were neutralized by addition of an equal volume of DMEM/F12 supplemented with 5% fetal bovine serum. Fibroblasts were plated in DMEM at a cellular density of 6.6×10^3 cells per cm^2. […]

[2] = tested on: aggrecanase activity in bovine cartilage explants; experiment: Bovine cartilage explant assay without added plasminogen (IL-1-induced aggrecanase degradation); assay type: cell-based; conditions: no added plasminogen
Source text: The assay described in Example 2 can be carried out with and without added plasminogen. With plasminogen, the active forms of the metalloproteinases (MMPs) and plasmin were generated. It is believed that MMPs, “aggrecanase” and plasmin degraded the cartilage explant in this assay. […] Therefore, in the absence of plasminogen, cartilage degradation occurred primarily as a result of “aggrecanase” activity.

O=C1NC(=O)c2cc(Nc3ccccc3)c(Nc3ccccc3)cc21 [DAPH, 4,5-dianilinophthalimide]
inhibition of IL-1-induced upregulation of stromelysin mRNA levels (stromelysin mRNA; 20 μM): Total inhibition | percent inhibition of IL-1 induced 35S release ([1]; 2 μM, repeated assay): no inhibition | percent inhibition of IL-1 induced 35S release ([1]; 20 μM, repeated assay): no inhibition

O=c1c(-c2ccc(O)cc2)coc2cc(O)cc(O)c12 [Genistein]
inhibition of IL-1-induced upregulation of stromelysin mRNA levels (stromelysin mRNA; 50 μM): Total inhibition | inhibition at 50 µM ([1]; 50 μM, first experiment, 1 ng/ml rhIL-1α, read-out: inhibitory effect on IL-1 induced release of 35S-labelled proteoglycans): 75 to 100% | inhibition at 50 µM ([1]; 50 μM, repeated assay, read-out: percent inhibition of IL-1 induced 35S release): 58% | inhibition at 50 µM ([2]; Bos taurus, 50 μM, read-out: inhibition of release of 35S-labelled proteoglycan): 37%

CO[C@H]1[C@@H](OC)C[C@H](C)[C@@H](OC)C2=CC(=O)C=C(NC(=O)/C(C)=C/C=C\[C@H](OC)[C@@H](OC(N)=O)/C(C)=C/[C@@H]1C)C2=O [Herbimycin A]
inhibition of IL-1-induced upregulation of stromelysin mRNA levels (stromelysin mRNA; 10 μM): Total inhibition | inhibition at 10 µM ([1]; first experiment, 1 ng/ml rhIL-1α, read-out: inhibitory effect on IL-1 induced release of 35S-labelled proteoglycans): 75 to 100% | inhibition at 10 µM ([1]; repeated assay, read-out: percent inhibition of IL-1 induced 35S release): 89% | inhibition at 0.25 µM ([2]; Bos taurus, 0.25 μM, read-out: inhibition of release of 35S-labelled proteoglycan): 55% | inhibition at 0.5 µM ([2]; Bos taurus, 0.5 μM, read-out: inhibition of release of 35S-labelled proteoglycan): 63% | inhibition at 1 µM ([2]; Bos taurus, 1 μM, read-out: inhibition of release of 35S-labelled proteoglycan): 78%

N#CC(C#N)=Cc1cc(O)c(O)c(O)c1 [Tyrphostin AG 82]
inhibition of IL-1-induced upregulation of stromelysin mRNA levels (stromelysin mRNA; 50 μM): no effect | percent inhibition of IL-1 induced 35S release ([1]; 50 μM, repeated assay): 40% | inhibition of release of 35S-labelled proteoglycan ([2]; 50 μM): 31%

N#CC(C#N)=Cc1ccc([N+](=O)[O-])c(O)c1 [Tyrphostin AG 126]
inhibition of IL-1-induced upregulation of stromelysin mRNA levels (stromelysin mRNA; 50 μM): no effect | percent inhibition of IL-1 induced 35S release ([1]; 50 μM, repeated assay): no inhibition | inhibition of release of 35S-labelled proteoglycan ([2]; 50 μM): no effect

N#C/C(=C\c1ccc(O)c(O)c1)C(=O)NCCCCc1ccccc1 [Tyrphostin AG 556]
inhibition of IL-1-induced upregulation of stromelysin mRNA levels (stromelysin mRNA; 50 μM): Total inhibition | percent inhibition of IL-1 induced 35S release ([1]; 50 μM, repeated assay): 100%
